Reference: US20250188092A1, “RIFAMYCIN ANALOGS” (THE REGENTS OF THE UNIVERSITY OF MICHIGAN, priority 2021, published 2025)
In brackets after ≈: the same amount, converted by molar mass.

System: non-replicating cultures of M. tuberculosis H37Rv transformed with lux ABCDE
Assay: microbe, parasite or virus in culture
Type: cell-based, Mycobacterium tuberculosis
Settings: for MIC90 LORA/MABA: ratio of LORA MIC90 to MABA MIC90
[1] = Mycobacterium tuberculosis, H37RV, […], ≥90% reduction in luminescence, read-out: MIC90 LORA

SMILES	MIC90 LORA Rel to RMP	MIC [1] [µM]	MIC90 LORA/MABA	MIC90 [1] [µM]
CO[C@H]1/C=C/O[C@@]2(C)Oc3c(C)c(O)c4c(=O)c(c5oc6cccc(OCCCCN7CCN(C)CC7)c6nc-5c4c3C2=O)NC(=O)/C(C)=C\C=C\[C@H](C)[C@H](O)[C@@H](C)[C@@H](O)[C@@H](C)[C@H](OC(C)=O)[C@@H]1C [Compound 5a, (7S,9E,11S,12R,13S,14R,15R,16R,17S,18S,19E,21Z)-2,15,17-Trihydroxy-11-methoxy-3,7,12,14,16,18,22-heptamethyl-32-[4-(4-methylpiperazin-1-yl)butoxy]-6,23,37-trioxo-8,27,38-trioxa-24,34-diazahexacyclo[23.11.1.1^4,7.0^5,36.0^26,35.0^28,33]octatriaconta-1(36)2,4,9,19,21,25,28(33)29,31,34-undecaen-13-yl acetate]	0.57	0.186	2.0	–
CO[C@H]1/C=C/O[C@@]2(C)Oc3c(C)c(O)c4c(=O)c(c5oc6cccc(OCCCCN7CCOCC7)c6nc-5c4c3C2=O)NC(=O)/C(C)=C\C=C\[C@H](C)[C@H](O)[C@@H](C)[C@@H](O)[C@@H](C)[C@H](OC(C)=O)[C@@H]1C [Compound 5b, (7S,9E,11S,12R,13S,14R,15R,16R,17S,18S,19E,21Z)-2,15,17-Trihydroxy-11-methoxy-3,7,12,14,16,18,22-heptamethyl-32-[4-(morpholin-4-yl)butoxy]-6,23,37-trioxo-8,27,38-trioxa-24,34-diazahexacyclo[23.11.1.1^4,7.0^5,36.0^26,35.0^28,33]octatriaconta-1(36)2,4,9,19,21,25,28(33)29,31,34-undecaen-13-yl acetate]	0.15	0.05	2.4	–
CO[C@H]1/C=C/O[C@@]2(C)Oc3c(C)c(O)c4c(=O)c(c5oc6cccc(OCCCCN7CCN(C(=O)OC(C)(C)C)CC7)c6nc-5c4c3C2=O)NC(=O)/C(C)=C\C=C\[C@H](C)[C@H](O)[C@@H](C)[C@@H](O)[C@@H](C)[C@H](OC(C)=O)[C@@H]1C [Compound 5c, Tert-Butyl 4-(4-{[(7S,9E,11S,12R,13S,14R,15R,16R,17S,18S,19E,21Z)-13-(acetyloxy)-2,15,17-trihydroxy-11-methoxy-3,7,12,14,16,18,22-heptamethyl-6,23,37-trioxo-8,27,38-trioxa-24,34-diazahexacyclo[23.11.1.1^4,7.0^5,36.0^26,35.0^28,33]octatriaconta-1(36)2,4,9,19,21,25,28(33)29,31,34-undecaen-32-yl]oxy}butyl)piperazine-1-carboxylate]	0.22	0.058 (≈ 0.0604 µg/mL)	2.4	–
CO[C@H]1/C=C/O[C@@]2(C)Oc3c(C)c(O)c4c(=O)c(c5oc6cc(N7CCN(CC(C)C)CC7)cc(OCCCCN7CCOCC7)c6nc-5c4c3C2=O)NC(=O)/C(C)=C\C=C\[C@H](C)[C@H](O)[C@@H](C)[C@@H](O)[C@@H](C)[C@H](OC(C)=O)[C@@H]1C [Compound 6a, (7S,9E,11S,12R,13S,14R,15R,16R,17S,18S,19E,21Z)-2,15,17-Trihydroxy-11-methoxy-3,7,12,14,16,18,22-heptamethyl-30-[4-(2-methylpropyl)piperazin-1-yl]-32-[4-(morpholin-4-yl)butoxy]-6,23,37-trioxo-8,27,38-trioxa-24,34-diazahexacyclo[23.11.1.1^4,7.0^5,36.0^26,35.0^28,33]octatriaconta-1(36)2,4,9,19,21,25,28(33)29,31,34-undecaen-13-yl acetate]	0.07	0.186	2.0	–
CO[C@H]1/C=C/O[C@@]2(C)Oc3c(C)c(O)c4c(=O)c(c5oc6cc(N7CCN(CC(C)C)CC7)cc(OCCCCN7CCN(CCn8ccnc8)CC7)c6nc-5c4c3C2=O)NC(=O)/C(C)=C\C=C\[C@H](C)[C@H](O)[C@@H](C)[C@@H](O)[C@@H](C)[C@H](OC(C)=O)[C@@H]1C [Compound 6b, (7S,9E,11S,12R,13S,14R,15R,16R,17S,18S,19E,21Z)-2,15,17-trihydroxy-32-(4-{4-[2-(1H-imidazol-1-yl)ethyl]piperazin-1-yl}butoxy)-11-methoxy-3,7,12,14,16,18,22-heptamethyl-30-[4-(2-methylpropyl)piperazin-1-yl]-6,23,37-trioxo-8,27,38-trioxa-24,34-diazahexacyclo[23.11.1.1^4,7.0^5,36.0^26,35.0^28,33]octatriaconta-1(36)2,4,9,19,21,25,28(33)29,31,34-undecaen-13-yl acetate]	0.05	0.05	2.4	–
CO[C@H]1/C=C/O[C@@]2(C)Oc3c(C)c(O)c4c(=O)c(c5oc6cc(N7CCN(C)CC7)cc(OCCCCN7CCN(C(=O)Cn8ccnc8)CC7)c6nc-5c4c3C2=O)NC(=O)/C(C)=C\C=C\[C@H](C)[C@H](O)[C@@H](C)[C@@H](O)[C@@H](C)[C@H](OC(C)=O)[C@@H]1C [Compound 6c, (7S,9E,11S,12R,13S,14R,15R,16R,17S,18S,19E,21Z)-2,15,17-Trihydroxy-32-(4-{4-[2-(1H-imidazol-1-yl)acetyl]piperazin-1-yl}butoxy)-11-methoxy-3,7,12,14,16,18,22-heptamethyl-30-(4-methylpiperazin-1-yl)-6,23,37-trioxo-8,27,38-trioxa-24,34-diazahexacyclo[23.11.1.1^4,7.0^5,36.0^26,35.0^28,33]octatriaconta-1(36)2,4,9,19,21,25,28(33)29,31,34-undecaen-13-yl acetate]	0.14	0.021	0.5	–
CO[C@H]1/C=C/O[C@@]2(C)Oc3c(C)c(O)c4c(=O)c(c5oc6cc(N7CCN(CC(C)C)CC7)cc(OCCCCN7CCN(C(=O)Cn8ccnc8)CC7)c6nc-5c4c3C2=O)NC(=O)/C(C)=C\C=C\[C@H](C)[C@H](O)[C@@H](C)[C@@H](O)[C@@H](C)[C@H](OC(C)=O)[C@@H]1C [Compound 6d, (7S,9E,11S,12R,13S,14R,15R,16R,17S,18S,19E,21Z)-2,15,17-Trihydroxy-32-(4-{4-[2-(1H-imidazol-1-yl)acetyl]piperazin-1-yl}butoxy)-11-methoxy-3,7,12,14,16,18,22-heptamethyl-30-[4-(2-methylpropyl)piperazin-1-yl]-6,23,37-trioxo-8,27,38-trioxa-24,34-diazahexacyclo[23.11.1.1^4,7.0^5,36.0^26,35.0^28,33]octatriaconta-1(36)2,4,9,19,21,25,28,30,32,34-undecaen-13-yl acetate]	0.06	0.058	2.4	–
CO[C@H]1/C=C/O[C@@]2(C)Oc3c(C)c(O)c4c(=O)c(c5oc6cccc(OCc7cccc(CN8CCN(C(C)=O)CC8)c7)c6nc-5c4c3C2=O)NC(=O)/C(C)=C\C=C\[C@H](C)[C@H](O)[C@@H](C)[C@@H](O)[C@@H](C)[C@H](OC(C)=O)[C@@H]1C [Compound 11c, (7S,9E,11S,12R,13S,14R,15R,16R,17S,18S,19E,21Z)-32-({3-[(4-Acetylpiperazin-1-yl)methyl]phenyl}methoxy)-2,15,17-trihydroxy-11-methoxy-3,7,12,14,16,18,22-heptamethyl-6,23,37-trioxo-8,27,38-trioxa-24,34-diazahexacyclo-[23.11.1.1^4,7.0^5,36.0^26,35.0^28,33]octatriaconta-1(36)2,4,9,19,21,25,28,30,32,34-undecaen-13-yl acetate]	0.53	–	2.1	0.123
CO[C@H]1/C=C/O[C@@]2(C)Oc3c(C)c(O)c4c(=O)c(c5oc6cccc(OCc7cccc(CN8CCN(C(=O)Cn9ccnc9)CC8)c7)c6nc-5c4c3C2=O)NC(=O)/C(C)=C\C=C\[C@H](C)[C@H](O)[C@@H](C)[C@@H](O)[C@@H](C)[C@H](OC(C)=O)[C@@H]1C [Compound 11e, (7S,9E,11S,12R,13S,14R,15R,16R,17S,18S,19E,21Z)-2,15,17-Trihydroxy-32-{[3-({4-[2-(1H-imidazol-1-yl)acetyl]piperazin-1-yl}methyl)phenyl]methoxy}-11-methoxy-3,7,12,14,16,18,22-heptamethyl-6,23,37-trioxo-8,27,38-trioxa-24,34-diazahexacyclo[23.11.1.1^4,7.0^5,36.0^26,35.0^28,33]octatriaconta-1(36)2,4,9,19,21,25,28,30,32,34-undecaen-13-yl acetate]	0.26	0.078	1.6	–
CO[C@H]1/C=C/O[C@@]2(C)Oc3c(C)c(O)c4c(=O)c(c5oc6cccc(OCc7ccc(CN8CCN(C(=O)Cn9ccnc9)CC8)cc7)c6nc-5c4c3C2=O)NC(=O)/C(C)=C\C=C\[C@H](C)[C@H](O)[C@@H](C)[C@@H](O)[C@@H](C)[C@H](OC(C)=O)[C@@H]1C [Compound 16b, (7S,9E,11S,12R,13S,14R,15R,16R,17S,18S,19E,21Z)-2,15,17-Trihydroxy-32-{[4-({4-[2-(1H-imidazol-1-yl)acetyl]piperazin-1-yl}methyl)phenyl]methoxy}-11-methoxy-3,7,12,14,16,18,22-heptamethyl-6,23,37-trioxo-8,27,38-trioxa-24,34-diazahexacyclo[23.11.1.1^4,7.0^5,36.0^26,35.0^28,33]octatriaconta-1(36)2,4,9,19,21,25,28,30,32,34-undecaen-13-yl acetate]	0.93	0.057	2.0	–
CO[C@H]1/C=C/O[C@@]2(C)Oc3c(C)c(O)c4c(=O)c(c5oc6cc(N7CCN(CC(C)C)CC7)cc(OCc7ccc(CN8CCNCC8)cc7)c6nc-5c4c3C2=O)NC(=O)/C(C)=C\C=C\[C@H](C)[C@H](O)[C@@H](C)[C@@H](O)[C@@H](C)[C@H](OC(C)=O)[C@@H]1C [Compound 17b, (7S,9E,11S,12R,13S,14R,15R,16R,17S,18S,19E,21Z)-2,15,17-Trihydroxy-11-methoxy-3,7,12,14,16,18,22-heptamethyl-30-[4-(2-methylpropyl)piperazin-1-yl]-6,23,37-trioxo-32-({4-[(piperazin-1-yl)methyl]phenyl}methoxy)-8,27,38-trioxa-24,34-diazahexacyclo[23.11.1.1^4,7.0^5,36.0^26,35.0^28,33]octatriaconta-1(36)2,4,9,19,21,25,28,30,32,34-undecaen-13-yl acetate]	1.3	< 0.016	–	–
